For 13 compounds, Kd results are on record in ChEMBL document CHEMBL5728503, “Second generation GRP94-selective inhibitors” (2021).

A word on the Kd: it is a measure of binding affinity in units of concentration.

In this assay the target is Endoplasmin (Canis lupus familiaris, UniProt P41148). Briefly: Fluorescence Polarization Assay: The assay was performed in 96-well black, flat-bottom plates with a final volume of 100 μL. 25 μL of assay buffer (20 mM HEPES, pH 7.3, 50 mM KCl, 5 mM MgCl2, 20 mM Na2MoO4, 2 mM DTT, 0.1 mg/mL BGG, and 0.01% NP-40) were added, followed by 25 μL of assay buffer containing 6 nM FITC-GDA (fluorescent tracer, stock in DMSO, diluted in assay buffer) and 50 μL of assay buffer containing 10 nM of either Grp94 or Hsp90α were added to each well. For each plate, wells containing buffer only (background), tracer in buffer only (low polarization control) and protein, tracer, and 1% DMSO (final concentration, high polarization control) were included. Compounds were then added with a final concentration of DMSO=1%. Plates were incubated at 4° C. with rocking for 24 h. […] Polarization values were correlated to % tracer bound and compound concentrations. Background: Fluorescence polarisation rises when a labelled molecule tumbles more slowly, as on binding a larger partner.
Chain of Endoplasmin (P41148 whole entry): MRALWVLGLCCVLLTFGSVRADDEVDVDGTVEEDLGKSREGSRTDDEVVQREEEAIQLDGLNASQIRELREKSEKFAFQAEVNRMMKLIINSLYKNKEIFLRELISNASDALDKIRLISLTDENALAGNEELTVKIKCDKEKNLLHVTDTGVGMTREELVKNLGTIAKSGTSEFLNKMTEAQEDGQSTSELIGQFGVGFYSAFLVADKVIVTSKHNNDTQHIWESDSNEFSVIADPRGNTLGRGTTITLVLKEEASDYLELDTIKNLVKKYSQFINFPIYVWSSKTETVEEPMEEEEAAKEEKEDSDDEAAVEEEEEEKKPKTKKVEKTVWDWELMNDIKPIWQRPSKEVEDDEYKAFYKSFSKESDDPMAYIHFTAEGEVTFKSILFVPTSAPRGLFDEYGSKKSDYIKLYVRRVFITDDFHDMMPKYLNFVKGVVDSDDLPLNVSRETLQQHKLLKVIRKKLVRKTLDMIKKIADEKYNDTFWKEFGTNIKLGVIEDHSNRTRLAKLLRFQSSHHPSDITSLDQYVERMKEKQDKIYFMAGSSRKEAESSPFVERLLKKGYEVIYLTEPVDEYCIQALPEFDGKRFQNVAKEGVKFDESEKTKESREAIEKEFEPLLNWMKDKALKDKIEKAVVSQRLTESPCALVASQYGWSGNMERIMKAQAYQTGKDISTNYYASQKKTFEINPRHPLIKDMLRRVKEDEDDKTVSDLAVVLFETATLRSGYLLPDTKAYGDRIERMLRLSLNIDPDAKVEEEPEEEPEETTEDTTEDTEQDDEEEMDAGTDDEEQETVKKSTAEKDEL

Compound `COC(=O)c1c(O)cc(O)c(Cl)c1CCc1ccc(OC)cc1Cc1ccccc1` showed a Kd of 680 nM. In the case of `CCOc1ccccc1Cc1ccccc1CCc1c(Cl)c(O)cc(O)c1C(=O)OC` it was 6100 nM; in that of `COC(=O)c1c(O)cc(O)c(Cl)c1CCc1cc(N)ccc1Cc1ccccc1`, 280 nM. Turning to `COC(=O)c1c(O)cc(O)c(Cl)c1CCc1ccccc1Cc1ccccc1Cl`, the Kd was 5500 nM. Under `COC(=O)c1c(O)cc(O)c(Cl)c1CCc1ccccc1Cc1cccc(Cl)c1` stands 11900 nM; under `COC(=O)c1c(O)cc(O)c(Cl)c1CCc1cccc(O)c1Cc1ccccc1`, 540 nM. In the case of `COC(=O)c1c(O)cc(O)c(Cl)c1CCc1ccccc1Cc1ccc(Cl)cc1` it was 4200 nM. In the case of `COC(=O)c1c(O)cc(O)c(Cl)c1CCc1cccc(OC)c1Cc1ccccc1` it was 730 nM. For `COC(=O)c1c(O)cc(O)c(Cl)c1CCc1ccccc1Cc1ccccc1OC`, the Kd is 7800 nM. `COC(=O)c1c(O)cc(O)c(Cl)c1CCc1ccc(O)cc1Cc1ccccc1`: the affinity, expressed as Kd, was 330 nM. This Kd lies about 24-fold lower than the previous one.

The compound `COC(=O)c1c(O)cc(O)c(Cl)c1CCc1ccc(N)cc1Cc1ccccc1` had a Kd of 240 nM. The Kd values of the last two compounds are within 1.5-fold of each other. In turn, `COC(=O)c1c(O)cc(O)c(Cl)c1CCc1cccc(Cc2ccccc2)c1` yielded a dissociation constant Kd of 10400 nM. In the case of `COC(=O)c1c(O)cc(O)c(Cl)c1CCc1cc(OC)ccc1Cc1ccccc1` it was 450 nM.
